Test results as given in US12486300B2, “Mithramycin oxime derivatives having increased selectivity and anti-cancer activity” (University of Kentucky Research Foundation, priority 2018, dated 2025).

System: TC32 Ewing sarcoma cells, expressing EWS-FLI1
Test: Growth inhibition assay, TC32 cells
Assay type: cell-based
Conditions: ratio of GI50 PC3 to TC32
Procedure: Growth inhibition assay to assess cytotoxicity in ETS vs non-ETS expressing cells. Cells were seeded in clear 96-well plates (VWR, Radnor, PA). Seeding densities were optimized for each cell line to support 5 days of linear growth. Following a 24 hours attachment period, cells in duplicate wells were treated with half-log increments of respective compounds (0 nM and 0.3 nM-10 μM). Working stocks were prepared from an initial 10 mM drug stock diluted in either 100% ethanol or dimethyl sulfoxide (DMSO). All wells contained a final concentration of 0.1% (v/v) respective organic solvent. Immediately following treatment, cell viability was measured for vehicle control (Day 0) wells. Cell viability was measured in the remaining wells after 72 hours of incubation with compound or vehicle control (Day 3).
Percent viability, relative to the initial cell seeding concentration, was calculated by ((TreatmentDay3−Vehicle ControlDay0)/(Vehicle ControlDay3−Vehicle ControlDay0))×100. Percent cell viability was plotted as a function of compound concentration (Log [M]) and the data were fit using a 3-parameter non-linear model with fixed Hill slope constant and 4-parameter non-linear model with variable Hill slope constant. The model with the best curve fit was used to estimate the GI50 in GraphPad Prism 7.0 software (GraphPad Software, La Jolla, CA). The 3-parameter equation used was Y=Bottom+(Top−Bottom)/(1+10[…]((X−Log[IC50]))). The 4-parameter equation used was Y=Bottom+(Top−Bottom)/(1+10[…]((Log[IC50]−X)*Hillslope)). Top and Bottom are plateaus in the units of the Y-axis (response). IC50 is the response (Y-axis) halfway between Top and Bottom plateaus.
All compounds were tested at least once in multi-well replicates and each experiment included one a control compound (i.e., MTM) to ensure the stable response of the cell lines. The selectivity index was estimated by determining the ratio of GI50 estimates between ETS fusion negative and ETS fusion positive cell lines.

Compound | PC:TC32 (cellular selectivity)
COC(C(=NOC(C)(C)C)C(O)C(C)O)C1Cc2cc3cc(OC4CC(OC5CC(O)C(O)C(C)O5)C(O)C(C)O4)c(C)c(O)c3c(O)c2C(=O)C1OC1CC(OC2CC(OC3CC(C)(O)C(O)C(C)O3)C(O)C(C)O2)C(O)C(C)O1 (stereo not drawn) [MTM (15Z)] | 2.25
COC(C(=NOCCOc1ccc(C(F)(F)F)cc1)C(O)C(C)O)C1Cc2cc3cc(OC4CC(OC5CC(O)C(O)C(C)O5)C(O)C(C)O4)c(C)c(O)c3c(O)c2C(=O)C1OC1CC(OC2CC(OC3CC(C)(O)C(O)C(C)O3)C(O)C(C)O2)C(O)C(C)O1 (stereo not drawn) [MTM (16)] | 7.91
C#CCON=C(C(O)C(C)O)C(OC)C1Cc2cc3cc(OC4CC(OC5CC(O)C(O)C(C)O5)C(O)C(C)O4)c(C)c(O)c3c(O)c2C(=O)C1OC1CC(OC2CC(OC3CC(C)(O)C(O)C(C)O3)C(O)C(C)O2)C(O)C(C)O1 (stereo not drawn) [MTM (17E)] | 2.40
C#CCON=C(C(O)C(C)O)C(OC)C1Cc2cc3cc(OC4CC(OC5CC(O)C(O)C(C)O5)C(O)C(C)O4)c(C)c(O)c3c(O)c2C(=O)C1OC1CC(OC2CC(OC3CC(C)(O)C(O)C(C)O3)C(O)C(C)O2)C(O)C(C)O1 (stereo not drawn) [MTM (17Z)] | 1.89
COC(C(=NOCC(=O)NCCc1c[nH]c2ccccc12)C(O)C(C)O)C1Cc2cc3cc(OC4CC(OC5CC(O)C(O)C(C)O5)C(O)C(C)O4)c(C)c(O)c3c(O)c2C(=O)C1OC1CC(OC2CC(OC3CC(C)(O)C(O)C(C)O3)C(O)C(C)O2)C(O)C(C)O1 (stereo not drawn) [MTM (18)] | 6.44
COC(C(=NOCCc1c[nH]c2ccccc12)C(O)C(C)O)C1Cc2cc3cc(OC4CC(OC5CC(O)C(O)C(C)O5)C(O)C(C)O4)c(C)c(O)c3c(O)c2C(=O)C1OC1CC(OC2CC(OC3CC(C)(O)C(O)C(C)O3)C(O)C(C)O2)C(O)C(C)O1 (stereo not drawn) [MTM (19)] | 1.70
COC(C(=NOCCc1c[nH]c2ccccc12)C(O)C(C)O)C1Cc2cc3cc(OC4CC(OC5CC(O)C(O)C(C)O5)C(O)C(C)O4)c(C)c(O)c3c(O)c2C(=O)C1OC1CC(OC2CC(OC3CC(C)(O)C(O)C(C)O3)C(O)C(C)O2)C(O)C(C)O1 (stereo not drawn) [MTM (19E)] | 1.40
COC(C(=NOCCCc1c[nH]c2ccccc12)C(O)C(C)O)C1Cc2cc3cc(OC4CC(OC5CC(O)C(O)C(C)O5)C(O)C(C)O4)c(C)c(O)c3c(O)c2C(=O)C1OC1CC(OC2CC(OC3CC(C)(O)C(O)C(C)O3)C(O)C(C)O2)C(O)C(C)O1 (stereo not drawn) [MTM (21)] | 1.38
COC(C(=NOCCCCc1c[nH]c2ccccc12)C(O)C(C)O)C1Cc2cc3cc(OC4CC(OC5CC(O)C(O)C(C)O5)C(O)C(C)O4)c(C)c(O)c3c(O)c2C(=O)C1OC1CC(OC2CC(OC3CC(C)(O)C(O)C(C)O3)C(O)C(C)O2)C(O)C(C)O1 (stereo not drawn) [MTM (22)] | 1.54
COC(=O)C(Cc1c[nH]c2ccccc12)NC(=O)C(Cc1ccccc1)NC(=O)CON=C(C(O)C(C)O)C(OC)C1Cc2cc3cc(OC4CC(OC5CC(O)C(O)C(C)O5)C(O)C(C)O4)c(C)c(O)c3c(O)c2C(=O)C1OC1CC(OC2CC(OC3CC(C)(O)C(O)C(C)O3)C(O)C(C)O2)C(O)C(C)O1 (stereo not drawn) [MTM (23)] | 7.31
COC(=O)C(Cc1c[nH]c2ccccc12)NC(=O)C(Cc1c[nH]c2ccccc12)NC(=O)CON=C(C(O)C(C)O)C(OC)C1Cc2cc3cc(OC4CC(OC5CC(O)C(O)C(C)O5)C(O)C(C)O4)c(C)c(O)c3c(O)c2C(=O)C1OC1CC(OC2CC(OC3CC(C)(O)C(O)C(C)O3)C(O)C(C)O2)C(O)C(C)O1 (stereo not drawn) [MTM (24)] | 6.9
COC(=O)C(Cc1ccccc1)NC(=O)C(Cc1c[nH]c2ccccc12)NC(=O)CON=C(C(O)C(C)O)C(OC)C1Cc2cc3cc(OC4CC(OC5CC(O)C(O)C(C)O5)C(O)C(C)O4)c(C)c(O)c3c(O)c2C(=O)C1OC1CC(OC2CC(OC3CC(C)(O)C(O)C(C)O3)C(O)C(C)O2)C(O)C(C)O1 (stereo not drawn) [MTM (25)] | 5.98
COC(=O)C(Cc1cn(C)c2ccccc12)NC(=O)CON=C(C(O)C(C)O)C(OC)C1Cc2cc3cc(OC4CC(OC5CC(O)C(O)C(C)O5)C(O)C(C)O4)c(C)c(O)c3c(O)c2C(=O)C1OC1CC(OC2CC(OC3CC(C)(O)C(O)C(C)O3)C(O)C(C)O2)C(O)C(C)O1 (stereo not drawn) [MTM (26)] | 5.64
COC(=O)C(Cc1ccccc1)NC(=O)CON=C(C(O)C(C)O)C(OC)C1Cc2cc3cc(OC4CC(OC5CC(O)C(O)C(C)O5)C(O)C(C)O4)c(C)c(O)c3c(O)c2C(=O)C1OC1CC(OC2CC(OC3CC(C)(O)C(O)C(C)O3)C(O)C(C)O2)C(O)C(C)O1 (stereo not drawn) [MTM (27)] | 7.06
COC(=O)C(Cc1ccccc1)NC(=O)C(Cc1ccccc1)NC(=O)CON=C(C(O)C(C)O)C(OC)C1Cc2cc3cc(OC4CC(OC5CC(O)C(O)C(C)O5)C(O)C(C)O4)c(C)c(O)c3c(O)c2C(=O)C1OC1CC(OC2CC(OC3CC(C)(O)C(O)C(C)O3)C(O)C(C)O2)C(O)C(C)O1 (stereo not drawn) [MTM (28)] | 11.68
COC(C(=NOCC(=O)NCCc1ccccc1)C(O)C(C)O)C1Cc2cc3cc(OC4CC(OC5CC(O)C(O)C(C)O5)C(O)C(C)O4)c(C)c(O)c3c(O)c2C(=O)C1OC1CC(OC2CC(OC3CC(C)(O)C(O)C(C)O3)C(O)C(C)O2)C(O)C(C)O1 (stereo not drawn) [MTM (29)] | 1.58
COC(=O)C(Cc1ccccc1)NC(=O)CON=C(C(O)C(C)O)C(OC)C1Cc2cc3cc(OC4CC(OC5CC(O)C(O)C(C)O5)C(O)C(C)O4)c(C)c(O)c3c(O)c2C(=O)C1OC1CC(OC2CC(OC3CC(C)(O)C(O)C(C)O3)C(O)C(C)O2)C(O)C(C)O1 (stereo not drawn) [MTM (30)] | 2.08
COC(C(=NOCC(=O)NCc1ccccc1)C(O)C(C)O)C1Cc2cc3cc(OC4CC(OC5CC(O)C(O)C(C)O5)C(O)C(C)O4)c(C)c(O)c3c(O)c2C(=O)C1OC1CC(OC2CC(OC3CC(C)(O)C(O)C(C)O3)C(O)C(C)O2)C(O)C(C)O1 (stereo not drawn) [MTM (31)] | 1.83
COC(C(=NOCC(=O)Nc1ccccc1)C(O)C(C)O)C1Cc2cc3cc(OC4CC(OC5CC(O)C(O)C(C)O5)C(O)C(C)O4)c(C)c(O)c3c(O)c2C(=O)C1OC1CC(OC2CC(OC3CC(C)(O)C(O)C(C)O3)C(O)C(C)O2)C(O)C(C)O1 (stereo not drawn) [MTM (32)] | 1.11
COC(C(=NNC(=O)CCCCCN1C(=O)C=CC1=O)C(O)C(C)O)C1Cc2cc3cc(OC4CC(OC5CC(O)C(O)C(C)O5)C(O)C(C)O4)c(C)c(O)c3c(O)c2C(=O)C1OC1CC(OC2CC(OC3CC(C)(O)C(O)C(C)O3)C(O)C(C)O2)C(O)C(C)O1 (stereo not drawn) [MTM (33)] | 3.9
COC(=O)C(Cc1c[nH]c2ccccc12)NC(=O)C(C)NC(=O)CON=C(C(O)C(C)O)C(OC)C1Cc2cc3cc(OC4CC(OC5CC(O)C(O)C(C)O5)C(O)C(C)O4)c(C)c(O)c3c(O)c2C(=O)C1OC1CC(OC2CC(OC3CC(C)(O)C(O)C(C)O3)C(O)C(C)O2)C(O)C(C)O1 (stereo not drawn) [MTM (34)] | 4.28
COC(C(=NOCC(=O)NC(Cc1c[nH]c2ccccc12)C(=O)O)C(O)C(C)O)C1Cc2cc3cc(OC4CC(OC5CC(O)C(O)C(C)O5)C(O)C(C)O4)c(C)c(O)c3c(O)c2C(=O)C1OC1CC(OC2CC(OC3CC(C)(O)C(O)C(C)O3)C(O)C(C)O2)C(O)C(C)O1 (stereo not drawn) [MTM (39)] | 7.4
COC(C(=NOCC(=O)NC(Cc1c[nH]c2ccccc12)C(=O)NCCc1c[nH]c2ccccc12)C(O)C(C)O)C1Cc2cc3cc(OC4CC(OC5CC(O)C(O)C(C)O5)C(O)C(C)O4)c(C)c(O)c3c(O)c2C(=O)C1OC1CC(OC2CC(OC3CC(C)(O)C(O)C(C)O3)C(O)C(C)O2)C(O)C(C)O1 (stereo not drawn) [MTM (43)] | 2.6
COC(C(=NOCC(=O)Nc1ccncc1)C(O)C(C)O)C1Cc2cc3cc(OC4CC(OC5CC(O)C(O)C(C)O5)C(O)C(C)O4)c(C)c(O)c3c(O)c2C(=O)C1OC1CC(OC2CC(OC3CC(C)(O)C(O)C(C)O3)C(O)C(C)O2)C(O)C(C)O1 (stereo not drawn) [MTM (45)] | 2.4
COC(C(=NOCC(=O)NC(Cc1c[nH]c2ccccc12)C(=O)Nc1ccccc1)C(O)C(C)O)C1Cc2cc3cc(OC4CC(OC5CC(O)C(O)C(C)O5)C(O)C(C)O4)c(C)c(O)c3c(O)c2C(=O)C1OC1CC(OC2CC(OC3CC(C)(O)C(O)C(C)O3)C(O)C(C)O2)C(O)C(C)O1 (stereo not drawn) [MTM (47)] | 2.7
COC(C(=NOCC(=O)NC(Cc1c[nH]c2ccccc12)C(=O)NCc1c[nH]c2ccccc12)C(O)C(C)O)C1Cc2cc3cc(OC4CC(OC5CC(O)C(O)C(C)O5)C(O)C(C)O4)c(C)c(O)c3c(O)c2C(=O)C1OC1CC(OC2CC(OC3CC(C)(O)C(O)C(C)O3)C(O)C(C)O2)C(O)C(C)O1 (stereo not drawn) [MTM (48)] | 2.30
COC(C(=NOCC(=O)Nc1cccnc1)C(O)C(C)O)C1Cc2cc3cc(OC4CC(OC5CC(O)C(O)C(C)O5)C(O)C(C)O4)c(C)c(O)c3c(O)c2C(=O)C1OC1CC(OC2CC(OC3CC(C)(O)C(O)C(C)O3)C(O)C(C)O2)C(O)C(C)O1 (stereo not drawn) [MTM (49)] | 2.4
